# Legend:
# [1] = Lymph and plasma pharmacokinetics of orlistat in acute pancreatitis rats; format: in vivo, rat; details: AP rats relative to healthy animals
# Description: FIG. 4 illustrates lymph and plasma pharmacokinetics of orlistat in lymph diverted or lymph intact sham or acute pancreatitis (AP) rats intestinally administered a blank long chain fatty acid (LC-FA), orlistat LC-FA (LC-FA+O), or orlistat lipid free formulation (LFF+O). Dose-normalised lymph concentration of total orlistat (open and closed ring forms) over time (Panel A), cumulative lymphatic transport of total orlistat (open and closed ring forms) over time (Panel B), gut-lymph concentrations of triglyceride (TG) (Panel C), cumulative TG mass transport in gut-lymph (Panel D), dose-normalised plasma concentrations of total orlistat (open and closed ring forms) (Panel E), and lymph to plasma concentration ratios of orlistat (Panel F) over time. […]
# In the previous study it was determined in healthy rats that orlistat administration in a long chain fatty acid (LC-FA) formulation promotes lymphatic drug transport when compared to administration in a lipid free formulation (LFF). […] Blood pressure and heart rate were also determined. […]
# After initiation of dosing of the formulations, lymph was collected continuously for the duration of the experiment (i.e. up to 4 h post initiation of formulation dosing) into pre-weighed 1.5 ml tubes that were kept in an ice bath. Lymph collection tubes were changed every hour and lymph flow was determined gravimetrically. […]
# [2] = cited from earlier work
# [3] = format: in vivo; details: intestinal and IV groups; below the limit of quantitation
# Description: Systemic availability was determined in lymph-intact anaesthetised rats with cannulas inserted into the carotid artery and duodenum for blood collection and formulation infusion, respectively. To enable the calculation of absolute bioavailability an additional group was administered orlistat intravenously via a jugular vein cannula, and blood samples collected from a carotid artery cannula over time.
# To enable determination of systemic availability following intestinal dosing of selected formulations (i.e. the 40 mg oleic acid and olive oil formulations containing 8 mg/kg orlistat) a separate group of lymph-intact animals (i.e. non-lymph cannulated) were cannulated at the duodenum and carotid artery to enable formulation administration and blood collection, respectively. After surgery the rats were hydrated via intraduodenal infusion of 2.8 ml/h normal saline for at least 30 min, followed by intraduodenal infusion of the formulations at 2.8 ml/h for 2 h. […]
# For the plasma pharmacokinetic studies, the absolute bioavailability following intestinal delivery of orlistat was calculated from:
# Where AUC0-8h intestinally administered and IV administered are the area under the plasma concentration time curves from time 0 to 8 h after intestinal and IV administration, respectively. Plasma AUCs were calculated using the linear trapezoidal method.
# [4] = healthy volunteers, oral, standard capsule formulations
smiles,measurement,setting,value
CCCCCCCCCCC[C@@H](C[C@@H]1OC(=O)[C@H]1CCCCCC)OC(=O)[C@H](CC(C)C)NC=O [orlistat],Gut-lymph uptake of orlistat in animals with AP,[1],attenuated relative to healthy animals
same,Dose recovered in the faeces,[2]; [4],more than 97%
same,Dose recovered in the faeces in a non-metabolised form,[2]; [4],83.1%
same,Absorption and bioavailability of orlistat,"[2]; oral administration in standard formulations, fed or fasted state",< 1 % dose
same,Plasma concentration of closed ring form of orlistat,[3],< 50 ng/mL

# Reference: patent US20250152550A1, “LYMPH-TARGETING FORMULATIONS” (Monash University, priority 2021, published 2025)
